Experimental findings from US20060178374A1, “Aminoheteroaryl compounds as protein kinase inhibitors” (AGOURON PHARMACEUTICALS, INC., priority 2004, published 2006) are described below.

The Ki is the dissociation constant of the complex between target and ligand, obtained from inhibition or displacement. A low value points to tighter binding.

Sequence of HGFR (c-Met) (P08581 974-1390): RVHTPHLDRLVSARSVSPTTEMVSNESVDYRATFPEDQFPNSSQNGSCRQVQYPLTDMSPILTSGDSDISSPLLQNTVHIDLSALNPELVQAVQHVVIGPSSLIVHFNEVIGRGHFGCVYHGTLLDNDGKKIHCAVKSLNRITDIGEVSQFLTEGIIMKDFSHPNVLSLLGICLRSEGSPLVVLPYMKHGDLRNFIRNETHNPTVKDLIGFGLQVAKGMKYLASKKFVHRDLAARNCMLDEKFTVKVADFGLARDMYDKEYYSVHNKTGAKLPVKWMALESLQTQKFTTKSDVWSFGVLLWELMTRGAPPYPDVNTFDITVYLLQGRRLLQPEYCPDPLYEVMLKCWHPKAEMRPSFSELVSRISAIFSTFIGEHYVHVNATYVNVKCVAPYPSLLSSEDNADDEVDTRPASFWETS

This experiment addresses HGFR (c-Met) (Homo sapiens, UniProt P08581). Put plainly: HGFR Continuous-Coupled Spectrophotometric Assay. The format is biochemical. To be noted: HGFR enzyme 50 nM, Met-2 peptide substrate, 37° C. The method, then: The general procedure is as follows: compounds and kinase assay reagents are introduced into test wells. The assay is initiated by addition of the kinase enzyme. Enzyme inhibitors reduce the measured activity of the enzyme.
In the continuous-coupled spectrophotometric assay the time-dependent production of ADP by the kinase is determined by analysis of the rate of consumption of NADH by measurement of the decrease in absorbance at 340 nm. As the PK produces ADP it is re-converted to ATP by reaction with phosphoenol pyruvate and pyruvate kinase. Pyruvate is also produced in this reaction. Pyruvate is subsequently converted to lactate by reaction with lactate dehydrogenase, which simultaneously converts NADH to NAD.
HGFR Continuous-Coupled Spectrophotometric Assay
This assay analyzes the tyrosine kinase activity of HGFR on the Met-2 substrate peptide, a peptide derived from the activation loop of the HGFR.
• 1. […] Dissolve up in 200 mM HEPES, pH 7.5 at 10 mM stock. • 3. 1 M PEP (phospho-enol-pyruvate) in 200 mM HEPES, pH 7.5 • 4. 100 mM NADH (B-Nicotinamide Adenine Dinucleotide, Reduced Form) in 200 mM HEPES, pH 7.5 • 5. 4 M MgCl2 (Magnesium Chloride) in ddH2O 6. 1 M DTT (Dithiothreitol) in 200 mM HEPES, pH 7.5 • 7. 15 Units/mL LDH (Lactic Dehydrogenase) • 8. 15 Units/mL PK (Pyruvate Kinase) • 9. 5M NaCl dissolved in ddH2O • 10. Tween-20 (Protein Grade) 10% Solution • 11. 1 M HEPES buffer: (N-[2-Hydroxethyl]piperazine-N-[2-ethanesulfonic acid]) Sodium Salt. Dissolve in ddH2O, adjust pH to 7.5, bring volume to 1 L. Filter at 0.1 μm. • 12. […] 100% DMSO (SIGMA) • 14. […] Beckman DU-650 w/ micro cell holders • 18. Beckman 4-position micro cell cuvette Procedure:
Prep Dilution Buffer (DB) for Enzyme (For 30 mL prep) • 1. DB final concentration is 2 mM DTT, 25 mM NaCl2, 5 mM MgCl2, 0.01% Tween-20, and 50 mM HEPES buffer, pH 7.5. • 2. Make up 50 mM HEPES by adding 1.5 mL 1 M HEPES into 28.1 mL of ddH2O. Add rest of the reagents. Into 50 mL conical vial, add 60 μL of 1M DTT, 150 μL 5M NaCl2, 150 μL 1M MgCl2, and 30 μL of 10% Tween-20 to give total volume of 30 mL. • 3. Vortex for 5-10 seconds. • 4. Aliquot out DB at 1 mL/tube and label tubes as “DB HGFR” • 5. Note: This can be prepared and stored ahead of time. • 6. Freeze un-used aliquots in microcentrifuge tubes at −20° C. freezer.
Prep Compounds • 1. For compound dilution plate, add 4 μL of 10 mM stock into column 1 of plate, and bring volume to 100 μL with 100% DMSO. • 2. Set up the Precision 2000 dilution method. A final concentration of 200 μM compound in 50% DMSO, 100 mM HEPES (1:2 serial dilution).
Prep Coupled Enzymatic Buffer:
1. Final concentration in assay:
• 2. For a 10 mL reaction buffer add 10 μL of 1M PEP, 33 μL of 100 mM NADH, 50 μL of 4M MgCl2, 20 μL of 1M DTT, 6 μL of 500 mM ATP, and […] of 10 mM Met-2 peptide into 100 mM HEPES buffer pH 7.5 and vortex/mix. • 3. Add coupling enzymes, LDH and PK, into reaction mix. Mix by gentle inversion.
1. Spectrophotometer settings:
• 2. Add 85 μL of CE reaction mix into each well of assay plate. • 3. Add 5 μL of diluted compound into a well of the assay plate. • 4. Add 5 μL of 50% DMSO for negative control into last column of assay plate. • 5. Mix with multi-channel pipettor or orbital shaker. • 6. Pre-incubate for 10 minutes at 37° C. • 7. Add 10 μL of 500 nM HGFR to each well of assay plate; the final HGFR concentration is 50 nM in a total final volume of 100 μL. • 8. Measure activity for 10 minutes at λ=340 nm and 37° C.
Ki data were obtained using the HGFR Continuous-Coupled Spectrophotometric Assay, and IC50 data were obtained using the Cellular HGFR Autophosphorylation Assay, both of which are described above.
On to `CC(Oc1cc(Br)cnc1N)c1c(C#N)ccc(N(C)C)c1Cl` (centres unmarked) [Example 50, 2-{1-[(2-amino-5-bromopyridin-3-yl)oxy]ethyl}-3-chloro-4-(dimethylamino)benzonitrile], for which affinity was put at a Ki of 1840 nM.
As to `CC(Oc1cc(Br)cnc1N)c1c(C#N)ccc(F)c1Cl` (centres unmarked) [Example 51, 2-[1-(2-Amino-5-bromo-pyridin-3-yloxy)-ethyl]-3-chloro-4-fluoro-benzonitrile], affinity was put at a Ki of 2090 nM.
In the case of `CC(Oc1cc(-c2ccc(C(=O)N3CCC(N4CCCC4)CC3)cc2)cnc1N)c1ccc(Cl)cc1Cl` (centres unmarked) [Example 52, (4-{6-Amino-5-[1-(2,4-dichloro-phenyl)-ethoxy]-pyridin-3-yl}-phenyl)-(4-pyrrolidin-1-yl-piperidin-1-yl)-methanone] it was 2140 nM; in that of `CC(Oc1cc(-c2ccc(C(=O)N3CCC(N4CCCC4)CC3)cc2)cnc1N)c1ccccc1` (centres unmarked) [Example 53, {4-[6-Amino-5-(1-phenyl-ethoxy)-pyridin-3-yl]-phenyl}-(4-pyrrolidin-1-yl-piperidin-1-yl)-methanone], 11000 nM.
Consider `CC(Oc1cc(-c2ccc(F)c(C(=O)N3C[C@@H](C)N[C@@H](C)C3)c2)cnc1N)c1c(Cl)ccc(F)c1Cl` (some centres unmarked) [Example 54, (5-{6-Amino-5-[1-(2,6-dichloro-3-fluoro-phenyl)-ethoxy]-pyridin-3-yl}-2-fluoro-phenyl)-(dimethyl-piperazin-1-yl)-methanone], for which the affinity, expressed as Ki, was 79 nM.
On to `CC(Oc1cc(-c2ccc(F)c(C(=O)N3CCC(N4CCCC4)CC3)c2)cnc1N)c1c(Cl)ccc(F)c1Cl` (centres unmarked) [Example 55, (5-{6-Amino-5-[1-(2,6-dichloro-3-fluoro-phenyl)-ethoxy]-pyridin-3-yl}-2-fluoro-phenyl)-(4-pyrrolidin-1-yl-piperidin-1-yl)-methanone], for which the affinity corresponds to a Ki of 102 nM.
Take `Cc1ccc(F)c(C(C)Oc2cc(-c3ccc(C(=O)N4CCC(N5CCCC5)CC4)cc3)cnc2N)c1Cl` (centres unmarked) [Example 56, (4-{6-Amino-5-[1-(2-chloro-6-fluoro-3-methyl-phenyl)-ethoxy]-pyridin-3-yl}-phenyl)-(4-pyrrolidin-1-yl-piperidin-1-yl)-methanone]: the Ki amounted to 173 nM.
In the case of `CC(Oc1cc(-c2cn(CC(=O)OC(C)(C)C)cn2)cnc1N)c1c(Cl)ccc(F)c1Cl` (centres unmarked) [Example 58, (4-{6-Amino-5-[1-(2,6-dichloro-3-fluoro-phenyl)-ethoxy]-pyridin-3-yl}-imidazol-1-yl)-acetic acid tert-butyl ester] it was 578 nM.
`CC(Oc1cc(-c2cn(CCN3CCOCC3)cn2)cnc1N)c1c(Cl)ccc(F)c1Cl` (centres unmarked) [Example 59, 3-[1-(2,6-Dichloro-3-fluoro-phenyl)-ethoxy]-5-[1-(2-morpholin-4-yl-ethyl)-1H-imidazol-4-yl]-pyridin-2-ylamine] came in with a Ki of 155 nM.
As to `CC(Oc1cc(-c2cn(CC(=O)NCCN3CCCC3)cn2)cnc1N)c1c(Cl)ccc(F)c1Cl` (centres unmarked) [Example 60, 2-(4-{6-Amino-5-[1-(2,6-dichloro-3-fluoro-phenyl)-ethoxy]-pyridin-3-yl}-imidazol-1-yl)-N-(2-pyrrolidin-1-yl-ethyl)-acetamide], the affinity corresponds to a Ki of 599 nM.
As for `CC(Oc1cc(-c2ccc(N3CCOCC3)nc2)cnc1N)c1c(Cl)ccc(F)c1Cl` (centres unmarked) [Example 61, 5-[1-(2,6-Dichloro-3-fluoro-phenyl)-ethoxy]-6′-morpholin-4-yl-[3,3′]bipyridinyl-6-ylamine], the affinity corresponds to a Ki of 72 nM.
In the case of `CC(Oc1cc(-c2ccc(N3CCN(C)CC3)nc2)cnc1N)c1c(Cl)ccc(F)c1Cl` (centres unmarked) [Example 63, 5-[1-(2,6-Dichloro-3-fluoro-phenyl)-ethoxy]-6′-(4-methyl-piperazin-1-yl)-[3,3′]bipyridinyl-6-ylamine], the Ki was 35.3 nM.
In the case of `CC(Oc1cc(-c2ccc(N3CCC(O)CC3)nc2)cnc1N)c1c(Cl)ccc(F)c1Cl` (centres unmarked) [Example 64, 6″-Amino-5″-[1-(2,6-dichloro-3-fluoro-phenyl)-ethoxy]-3,4,5,6-tetrahydro-2H-[1,2′;5′,3″]terpyridin-4-ol] it was 19.3 nM.
In turn, `CC(Oc1cc(-c2ccc(N3CCC(CO)CC3)nc2)cnc1N)c1c(Cl)ccc(F)c1Cl` (centres unmarked) [Example 65, {6″-Amino-5″-[1-(2,6-dichloro-3-fluoro-phenyl)-ethoxy]-3,4,5,6-tetrahydro-2H-[1,2′;5′,3″]terpyridin-4-yl}-methanol] returned an inhibitory constant (Ki) of 43.5 nM.
The same measure for `CC(Oc1cc(-c2ccc(N3CCN(CCO)CC3)nc2)cnc1N)c1c(Cl)ccc(F)c1Cl` (centres unmarked) [Example 66, 2-(4-{6′-Amino-5′-[1-(2,6-dichloro-3-fluoro-phenyl)-ethoxy]-[3,3′]bipyridinyl-6-yl}-piperazin-1-yl)-ethanol]: 32.7 nM; for `CC(Oc1cc(-c2ccc(N3CCC(N4CCCC4)CC3)nc2)cnc1N)c1c(Cl)ccc(F)c1Cl` (centres unmarked) [Example 67, 5″-[1-(2,6-Dichloro-3-fluoro-phenyl)-ethoxy]-4-pyrrolidin-1-yl-3,4,5,6-tetrahydro-2H-[1,2′;5′,3″]terpyridin-6″-ylamine]: 23.1 nM; for `CCN(CC)CCC(=O)NCc1cccc(-c2cnc(N)c(OC(C)c3c(Cl)ccc(F)c3Cl)c2)c1` (centres unmarked) [Example 68, N-(3-{6-Amino-5-[1-(2,6-dichloro-3-fluoro-phenyl)-ethoxy]-pyridin-3-yl}-benzyl)-3-diethylamino-propionamide]: 68.1 nM.
For `CC(Oc1cc(-c2ccc(N3CCN(CCN(C)C)CC3)nc2)cnc1N)c1c(Cl)ccc(F)c1Cl` (centres unmarked) [Example 69, 5-[1-(2,6-Dichloro-3-fluoro-phenyl)-ethoxy]-6′-[4-(2-dimethylamino-ethyl)-piperazin-1-yl]-[3,3′]bipyridinyl-6-ylamine], the Ki stood at 39 nM.
Consider `CC(Oc1cc(-c2cccc(CNC(=O)CN(C)C)c2)cnc1N)c1c(Cl)ccc(F)c1Cl` (centres unmarked) [Example 70, N-(3-{6-Amino-5-[1-(2,6-dichloro-3-fluoro-phenyl)-ethoxy]-pyridin-3-yl}-benzyl)-2-dimethylamino-acetamide], for which the Ki was determined as 52 nM.
`CC(Oc1cc(-c2ccc(OC3CCNCC3)nc2)cnc1N)c1c(Cl)ccc(F)c1Cl` (centres unmarked) [Example 71, 5-[1-(2,6-Dichloro-3-fluoro-phenyl)-ethoxy]-6′-(piperidin-4-yloxy)-[3,3′]bipyridinyl-6-ylamine] showed an inhibition constant Ki of 27 nM.
For `CC(Oc1cc(-c2cccc(CNC(=O)CCN)c2)cnc1N)c1c(Cl)ccc(F)c1Cl` (centres unmarked) [Example 72, 3-Amino-N-(3-{6-amino-5-[1-(2,6-dichloro-3-fluoro-phenyl)-ethoxy]-pyridin-3-yl}-benzyl)-propionamide], affinity was put at a Ki of 49 nM.
In the case of `CC(Oc1cc(-c2ccc(N3CCNCC3)nc2)cnc1N)c1c(Cl)ccc(F)c1Cl` (centres unmarked) [Example 73, 5-[1-(2,6-Dichloro-3-fluoro-phenyl)-ethoxy]-6′-piperazin-1-yl-[3,3′]bipyridinyl-6-ylamine] it was 21 nM.
As for `CC(Oc1cc(-c2ccc(OCCC3CCNCC3)nc2)cnc1N)c1c(Cl)ccc(F)c1Cl` (centres unmarked) [Example 74, 5-[1-(2,6-Dichloro-3-fluoro-phenyl)-ethoxy]-6′-(2-piperidin-4-yl-ethoxy)-[3,3′]bipyridinyl-6-ylamine], the inhibition constant (Ki) worked out at 47 nM.
